# Source: PubChem BioAssay (NCI)
#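 These data come from cells grown in 96-well plates and exposed to compound for 48 hours at five concentrations. TGI denotes the concentration required for complete inhibition of growth.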
# Key:
# Test in all cases: inhibition of tumour cell growth, NCI panel, 48 h
# UACC-257 melanoma = test system: UACC-257 melanoma
# MDA-MB-231 breast = test system: MDA-MB-231 breast
# MCF7 breast = test system: MCF7 breast
# SNB-19 CNS = test system: SNB-19 CNS
# BT-549 breast = test system: BT-549 breast
# NCI-H522 lung = test system: NCI-H522 lung
# MDA-MB-435 = test system: MDA-MB-435
# UACC-62 melanoma = test system: UACC-62 melanoma
# COLO 205 colon = test system: COLO 205 colon
# NCI-H226 lung = test system: NCI-H226 lung
# M14 melanoma = test system: M14 melanoma
# HS 578T breast = test system: HS 578T breast
# MALME-3M melanoma = test system: MALME-3M melanoma
# SK-MEL-2 melanoma = test system: SK-MEL-2 melanoma
# ACHN renal = test system: ACHN renal
# NCI-H460 lung = test system: NCI-H460 lung
# RXF 393 renal = test system: RXF 393 renal
# OVCAR-4 ovarian = test system: OVCAR-4 ovarian
# HL-60(TB) leukemia = test system: HL-60(TB) leukemia
# A549 NSCLC = test system: A549 NSCLC
# SR leukemia = test system: SR leukemia
# SW-620 colon = test system: SW-620 colon
# UO-31 renal = test system: UO-31 renal
# OVCAR-8 ovarian = test system: OVCAR-8 ovarian
# 786-0 renal = test system: 786-0 renal
# IGROV1 ovarian = test system: IGROV1 ovarian
# NCI/ADR-RES ovarian = test system: NCI/ADR-RES ovarian
# SK-OV-3 ovarian = test system: SK-OV-3 ovarian
# SN12C renal = test system: SN12C renal
# HCT-15 colon = test system: HCT-15 colon
# PC-3 prostate = test system: PC-3 prostate
# EKVX NSCLC = test system: EKVX NSCLC
# NCI-H23 lung = test system: NCI-H23 lung
# SK-MEL-5 melanoma = test system: SK-MEL-5 melanoma
# U251 CNS = test system: U251 CNS
# T-47D breast = test system: T-47D breast
# SF-295 CNS = test system: SF-295 CNS
# MDA-N = test system: MDA-N
# HOP-92 NSCLC = test system: HOP-92 NSCLC
# MOLT-4 leukemia = test system: MOLT-4 leukemia
# HCT-116 colon = test system: HCT-116 colon
# LOX IMVI melanoma = test system: LOX IMVI melanoma
# K-562 leukemia = test system: K-562 leukemia
# HCC-2998 colon = test system: HCC-2998 colon
# CAKI-1 renal = test system: CAKI-1 renal
# TK-10 renal = test system: TK-10 renal
# RPMI-8226 leukemia = test system: RPMI-8226 leukemia
# A498 renal = test system: A498 renal
# HOP-62 NSCLC = test system: HOP-62 NSCLC
# DU-145 prostate = test system: DU-145 prostate
# CCRF-CEM leukemia = test system: CCRF-CEM leukemia
# SNB-75 CNS = test system: SNB-75 CNS
# OVCAR-3 ovarian = test system: OVCAR-3 ovarian
# HT29 colon = test system: HT29 colon
# OVCAR-5 ovarian = test system: OVCAR-5 ovarian
# KM12 colon = test system: KM12 colon
# SF-539 CNS = test system: SF-539 CNS
# SK-MEL-28 melanoma = test system: SK-MEL-28 melanoma
# SF-268 CNS = test system: SF-268 CNS
structure (smiles),measurement,setting,value
ClC1=C(Cl)C(Cl)(Cl)SS1,TGI,UACC-257 melanoma,> 7.95 µM
same,TGI,MDA-MB-231 breast,> 10 µM
same,TGI,MCF7 breast,> 10 µM
same,TGI,SNB-19 CNS,> 10 µM
same,TGI,BT-549 breast,> 10 µM
same,TGI,NCI-H522 lung,> 6.85 µM
same,TGI,MDA-MB-435,> 10 µM
same,TGI,UACC-62 melanoma,> 10 µM
same,TGI,COLO 205 colon,3.73 µM
same,TGI,NCI-H226 lung,> 10 µM
same,TGI,M14 melanoma,> 10 µM
same,TGI,HS 578T breast,> 10 µM
same,TGI,MALME-3M melanoma,> 6.61 µM
same,TGI,SK-MEL-2 melanoma,> 10 µM
same,TGI,ACHN renal,> 10 µM
same,TGI,NCI-H460 lung,> 10 µM
same,TGI,RXF 393 renal,> 10 µM
same,TGI,OVCAR-4 ovarian,9.81 µM
same,TGI,HL-60(TB) leukemia,> 7.32 µM
same,TGI,A549 NSCLC,> 10 µM
same,TGI,SR leukemia,5.35 µM
same,TGI,SW-620 colon,5.82 µM
same,TGI,UO-31 renal,> 6.06 µM
same,TGI,OVCAR-8 ovarian,> 10 µM
same,TGI,786-0 renal,> 6.03 µM
same,TGI,IGROV1 ovarian,> 10 µM
same,TGI,NCI/ADR-RES ovarian,> 10 µM
same,TGI,SK-OV-3 ovarian,> 10 µM
same,TGI,SN12C renal,> 10 µM
same,TGI,HCT-15 colon,> 10 µM
same,TGI,PC-3 prostate,> 10 µM
same,TGI,EKVX NSCLC,> 10 µM
same,TGI,NCI-H23 lung,> 10 µM
same,TGI,SK-MEL-5 melanoma,> 10 µM
same,TGI,U251 CNS,> 10 µM
same,TGI,T-47D breast,> 10 µM
same,TGI,SF-295 CNS,> 10 µM
same,TGI,MDA-N,> 10 µM
same,TGI,HOP-92 NSCLC,> 8.63 µM
same,TGI,MOLT-4 leukemia,3.61 µM
same,TGI,HCT-116 colon,> 6.72 µM
same,TGI,LOX IMVI melanoma,> 10 µM
same,TGI,K-562 leukemia,> 7.82 µM
same,TGI,HCC-2998 colon,> 10 µM
same,TGI,CAKI-1 renal,6.76 µM
same,TGI,TK-10 renal,> 10 µM
same,TGI,RPMI-8226 leukemia,6.73 µM
same,TGI,A498 renal,> 10 µM
same,TGI,HOP-62 NSCLC,> 10 µM
same,TGI,DU-145 prostate,> 10 µM
same,TGI,CCRF-CEM leukemia,> 8 µM
same,TGI,SNB-75 CNS,> 10 µM
same,TGI,OVCAR-3 ovarian,> 9.5 µM
same,TGI,HT29 colon,> 10 µM
same,TGI,OVCAR-5 ovarian,> 10 µM
same,TGI,KM12 colon,> 10 µM
same,TGI,SF-539 CNS,> 10 µM
same,TGI,SK-MEL-28 melanoma,> 10 µM
same,TGI,SF-268 CNS,> 10 µM
S=C1N=C2C(=N1)n1c3c(c4ccccc41)CCCC23 (stereo not drawn),TGI,UACC-257 melanoma,> 100 µM
same,TGI,MDA-MB-231 breast,> 100 µM
same,TGI,MCF7 breast,63.1 µM
same,TGI,SNB-19 CNS,> 100 µM
same,TGI,BT-549 breast,> 100 µM
same,TGI,NCI-H522 lung,63.3 µM
same,TGI,MDA-MB-435,> 100 µM
same,TGI,UACC-62 melanoma,> 100 µM
same,TGI,COLO 205 colon,> 100 µM
same,TGI,NCI-H226 lung,> 100 µM
same,TGI,M14 melanoma,> 100 µM
same,TGI,HS 578T breast,> 100 µM
same,TGI,MALME-3M melanoma,> 100 µM
same,TGI,SK-MEL-2 melanoma,> 100 µM
same,TGI,ACHN renal,> 100 µM
same,TGI,NCI-H460 lung,> 100 µM
same,TGI,RXF 393 renal,> 100 µM
same,TGI,OVCAR-4 ovarian,> 100 µM
same,TGI,HL-60(TB) leukemia,> 100 µM
same,TGI,A549 NSCLC,> 100 µM
same,TGI,SR leukemia,> 100 µM
same,TGI,SW-620 colon,> 100 µM
same,TGI,UO-31 renal,> 100 µM
same,TGI,OVCAR-8 ovarian,> 100 µM
same,TGI,786-0 renal,32.9 µM
same,TGI,IGROV1 ovarian,> 100 µM
same,TGI,NCI/ADR-RES ovarian,> 100 µM
same,TGI,SK-OV-3 ovarian,> 100 µM
same,TGI,SN12C renal,72.6 µM
same,TGI,HCT-15 colon,> 100 µM
same,TGI,PC-3 prostate,> 100 µM
same,TGI,EKVX NSCLC,> 100 µM
same,TGI,NCI-H23 lung,> 100 µM
same,TGI,SK-MEL-5 melanoma,> 100 µM
same,TGI,U251 CNS,> 100 µM
same,TGI,T-47D breast,> 100 µM
same,TGI,SF-295 CNS,> 100 µM
same,TGI,MDA-N,> 100 µM
same,TGI,HOP-92 NSCLC,> 100 µM
same,TGI,MOLT-4 leukemia,> 100 µM
same,TGI,HCT-116 colon,> 100 µM
same,TGI,LOX IMVI melanoma,35.6 µM
same,TGI,K-562 leukemia,> 100 µM
same,TGI,HCC-2998 colon,> 100 µM
same,TGI,CAKI-1 renal,> 100 µM
same,TGI,TK-10 renal,> 100 µM
same,TGI,RPMI-8226 leukemia,97.5 µM
same,TGI,A498 renal,> 100 µM
same,TGI,HOP-62 NSCLC,> 100 µM
same,TGI,DU-145 prostate,> 100 µM
same,TGI,CCRF-CEM leukemia,> 100 µM
same,TGI,SNB-75 CNS,> 100 µM
same,TGI,OVCAR-3 ovarian,> 100 µM
same,TGI,HT29 colon,> 100 µM
same,TGI,OVCAR-5 ovarian,> 100 µM
same,TGI,KM12 colon,> 100 µM
same,TGI,SF-539 CNS,> 100 µM
same,TGI,SK-MEL-28 melanoma,> 100 µM
same,TGI,SF-268 CNS,> 100 µM
